Reference: patent publication US20180265867A1, “NUCLEIC ACID MOLECULES WITH ENHANCED ACTIVITY” (priority 2015, published 2018)
d = 2'-deoxy (DNA); r = 2'-OH (RNA)

Legend:
[1] = Thermal denaturation (Tm) of siRNA duplexes; type: physicochemical; details: for Tm: 7.5 mM phosphate buffer pH 7.0 containing 140 mM KCl, 1 μM strands, 40-95° C.; for Δ Tm: Tm relative to canonical siRNA (dT2); for drop in Tm: as compared to canonical siRNA
Protocol: Thermal denaturation studies of siRNA was carried out in phosphate buffer, pH 7.0, containing 140 mM KCl. UV absorbance was monitored at 260 nm in the temperature range from 40 to 95° C. using a Lambda 35 UV-Vis spectrophotometer equipped with a Peltier temperature programmer with a heating rate of 0.5° C./min. Samples (1 μM RNA) were denatured at 90° C. for 3 min followed by slow cooling to 27° C. prior to the measurements. Tm values were obtained from the maxima of the first derivatives of the melting curves. All Tm values given are the averages of three independent sets of experiments (±0.3° C. error range).

GAPDH = GAPDH gene knockdown in MG63 cells by RT-PCR; type: cell-based, human; details: MG63 cells; for GAPDH gene knockdown: 50 nM, 24 h
Protocol: At 70% confluency, a day prior to transfection, the cells were seeded at a density of 35 000 cells in a 24-well cell culture plate to achieve 60-80% confluence at the day of transfection. Cell penetrating siRNAs (cpRNAs) of different lengths were transfected at 50 nM concentrations with Magnet Assisted Transfection (MATra-si) reagent for siRNAs (IBA GmbH, Göttingen, Germany) according to the manufacturers' protocols. Briefly, the siRNA was mixed with MATra-si reagent composed of supermagnetic ironoxide nanoparticles and incubated for 20 min. A complex was formed which was added to the cells to be transfected. A strong magnetic force was applied beneath the cells for 15 min. This forced the complex to be drawn into the cells by the magnetic field, and as a result the siRNA was delivered directly into the cytosol. For carrier free transfection experiments, cpRNAs were simply added to cells lines MG63, HOB, HCT116, fibroblasts and keratinocytes at 50 nM concentrations. Cells were also transfected with negative control siRNA (scrambled sequence) and cells left untreated were taken as controls. Each transfection was performed in triplicate. Post transfection, cells were incubated for 24 hours.
For the experiments involving lysosomotropic agent chloroquine (CQ), CQ was first neutralized to pH 7.4 using 1 M NaOH prior to use. MG63 cells were transfected with dT2, dT5, dT8, (dT5)2, as(dT5), and bl(dT5) siRNA in presence or absence of 100 μM CQ or using MATra-si and incubated for 24 h. Similar experiments were performed for other cpRNAs namely, dA5, dT5, dG5, (dT5)2, rA5 and dC5. For the control experiment, cells were either left untreated or transfected with negative control siRNA (scrambled sequence). Each transfection experiment was performed in triplicate.
After performing transfection experiments for 24 h, 48 h and 72 h respectively, total RNA was isolated from cells by adding 500 μl of lysis buffer (Qiagen, Germany), followed by homogenization of cell lysates using QIAshredder (Qiagen, Germany). RNA was extracted from cell lysates by RNeasy Mini Kit (Qiagen, Germany). All RNA samples were treated with DNase using TURBO-DNAfree (Ambion, USA). Agilent 2100 BioAnalyzer (Agilent Technologies, Palo Alto, Calif.) was used to confirm high quality of all RNA samples, which reports an RNA Integrity Number (RIN) that takes into account the entire electrophoretic RNA trace produced in the analysis. A RIN of greater than or equal to seven indicates the RNA is suitable for high stringency applications.
cDNA synthesis was performed in triplicate using total RNA reverse transcribed using High Capacity cDNA reverse transcription kit (Applied Biosystems, USA), with non-template control added to ensure a lack of signal in assay background. Reactions were incubated on a 96-well Applied Biosystems 9800 Fast Thermal Cycler PCR System at 37° C. for 60 min followed by 95° C. for 5 min. The real-time PCR reactions were carried out with 10 μl of 2×TaqMan® Universal PCR Master Mix, no AmpErase® UNG (Applied Biosystems, USA), 9 μl diluted cDNA, and 1 μl of TaqMan gene specific assay mix in a 20 μl final reaction volume. Reference gene beta-actin (ACTB) (Applied Biosystems, USA) was selected as control for normalization of TaqMan data. The assay included a no-template control, a standard curve of five serial dilution points (in steps of 3-fold) of cDNA mixture. Probes specific for IFN-α (Hs01022060_m1), IFN-β (Hs01077958_s1), IFN-γ (Hs00985251_m1), ACTB(Hs01060665_g1) and GAPDH (Hs02758991_g1) were purchased from Applied Biosystems. The amplification was carried out using the 7500 Fast Real-Time PCR System (Applied Biosystems, USA) using a 40-cycle program. The 7500 software automatically calculates raw Ct (cycle threshold) values. Data from samples with a Ct value equal to or below 35 were further analyzed. […]

Ctnnb1 (β-Catenin) = assay: Ctnnb1 expression in MC3T3-E1 cells by quantitative RT-PCR; type: cell-based, mouse
Protocol: MC3T3-E1 cells were cultured in α-MEM (Sigma-Aldrich, Haverhill, UK) medium containing 10% FBS, 1% L-Glutamine, and 1% antibiotics (PeSt) at 37° C. with 5% CO2. One day prior to the miRNA treatment, 35,000 cells were plated per each well of a 24-well plate. On the experiment day, cells were replaced with 2% heat inactivated-FBS containing α-MEM medium with 1% L-Glutamine, and 1% antibiotics (PeSt). miR-34a-CP (final concentration: 50 nM) was given to the each well. Mirvana scrambled miRNA mimic was used as a negative control.
After 24 hours of transfection, and incubation, RNA extraction was performed by using miRCURY RNA Isolation Kit—Cell and Plant (#300100) and protocol from Exiqon, Vedbæk, Denmark. RNA samples were treated with DNase for 30 minutes at 37 degrees, thereafter inactivated with a DNase inactivation solution (TUTRBO DNase AM2238 thermofisher). Thereafter, RNA concentrations were measured using NanoDrop ND-1000 from NanoDrop Technologies, Wilmington, Del.
The cDNA was made from the total RNA using High Capacity cDNA reverse transcription kit (Applied Biosystems, USA). Reactions were performed on a 96-well Bio-Rad Thermal Cycler PCR System at 37° C. for 60 minutes, and at 95° C. for 5 min respectively. Real-time PCR reactions were performed as follows: 10 μl of 2×TaqMan® Universal PCR Master Mix, no AmpErase® UNG (Applied Biosystems, USA), 9 μl 1:5 diluted cDNA, and 1 μl of TaqMan gene specific assay mix. Final volume of the reaction mix was 20 uL. Internal control gene beta-actin (ACTB) (Applied Biosystems, USA) was selected as control for normalization of TaqMan data. The qRT-PCR reaction comprised a non-template control of cDNA in order to rule out any non-specific reading. Taqman probes for Ctnnb1, Sox9, Actb, were obtained from Applied Biosystems. The qRT-PCR amplification was carried out using the Bio-Rad qRT-PCR Thermocycler.
In order to achieve the transfection reagent free delivery of therapeutically potential microRNAs, we tested miR-34a and compared with miR-34a-CP. Since microRNAs unlike siRNAs have multiple targets in the cell, and there is a necessity to reduce the off-target and undesirable effects if any, we have also designed siRNA model siR-34a-CP as stated above. We have used mouse preosteoblast cell line MC3T3-E1 obtained from calvarial bone for the in-vitro functional validation of cell-penetrating molecules. On the day before transfection experiment, 35000 MC3T3-E1 cells were cultured per each well of the 24-well culture plate in alpha-Minimum Essential Medium with 10% heat inactivated FBS, 1% L-Glutamine, 1% antibiotics (Pe/St). […] 5% CO2. Thereafter, RNA extraction, cDNA preparation, and quantitative real-time PCR was performed by using TaqMan procedure.

[2] = without transfection reagent MaTra (FIG. 12)

Substance	Tm [1] [°C]	Δ Tm [1] [°C]	drop in Tm [1] [°C]	GAPDH gene knockdown (GAPDH; carrier-free transfection) [%]	further results
(dT5)2: Symmetrical GAPDH siRNA, sense SEQ ID NO: 3 and antisense SEQ ID NO: 5, dT5 overhang at both 3′-ends (sense CCGAGCCACAUCGCUCAGATTTTT; antisense UCUGAGCGAUGUGGCUCGGTTTTT; sugars from the 5' end r19 d5, backbone not given here)	80.1	−1.1	~1	65	enhancement in activity compared to canonical siRNA (GAPDH; MATra-si transfection): 10%; GAPDH gene knockdown (GAPDH; MATra-si transfection): 70%
as(dT5): GAPDH siRNA, sense SEQ ID NO: 1 with dT2, antisense SEQ ID NO: 5 with dT5 3′-overhang (sense CCGAGCCACAUCGCUCAGATT; antisense UCUGAGCGAUGUGGCUCGGTTTTT; sense: sugars from the 5' end r19 d2, backbone not given here; antisense: sugars from the 5' end r19 d5, backbone not given here)	79.5	−1.7	–	20	–
bl(dT5): GAPDH siRNA, sense SEQ ID NO: 3 with dT5, blunt ended antisense SEQ ID NO: 11 without overhang (sense CCGAGCCACAUCGCUCAGATTTTT; antisense UCUGAGCGAUGUGGCUCGG; sense: sugars from the 5' end r19 d5, backbone not given here; antisense: RNA, backbone not given here)	79.1	−2.1	–	60	decrease in activity (GAPDH; 3′-dT2 of antisense strand removed, versus dT5): 20%
dA5: GAPDH siRNA, sense SEQ ID NO: 6 with dA5 3′-overhang, antisense SEQ ID NO: 2 with dT2 (sense CCGAGCCACAUCGCUCAGAAAAAA; antisense UCUGAGCGAUGUGGCUCGGTT; sense: sugars from the 5' end r19 d5, backbone not given here; antisense: sugars from the 5' end r19 d2, backbone not given here)	79.6	−1.6	~1.5	80	RNAi activity among different 5-nt candidates (GAPDH; FIG. 2B): highest RNAi activity
dC5: GAPDH siRNA, sense SEQ ID NO: 8 with dC5 3′-overhang, antisense SEQ ID NO: 2 with dT2 (sense CCGAGCCACAUCGCUCAGACCCCC; antisense UCUGAGCGAUGUGGCUCGGTT; sense: sugars from the 5' end r19 d5, backbone not given here; antisense: sugars from the 5' end r19 d2, backbone not given here)	80.9	−0.3	–	–	–
dG5: GAPDH siRNA, sense SEQ ID NO: 7 with dG5 3′-overhang, antisense SEQ ID NO: 2 with dT2 (sense CCGAGCCACAUCGCUCAGAGGGGG; antisense UCUGAGCGAUGUGGCUCGGTT; sense: sugars from the 5' end r19 d5, backbone not given here; antisense: sugars from the 5' end r19 d2, backbone not given here)	79.2	−2.0	~2	–	–
miR-34a: Natural miR-34a duplex, sense SEQ ID NO: 20, antisense SEQ ID NO: 21 (sense CAAUCAGCAAGUAUACUGCCCU; antisense UGGCAGUGUCUUAGCUGGUUGU; unmodified RNA) [reference compound]	–	–	–	–	Ctnnb1 expression (Ctnnb1 (β-Catenin); transfected with MaTra (FIG. 12)): induced over expression of Ctnnb1; Ctnnb1 expression (Ctnnb1 (β-Catenin); [2]): did not show any effect on the expression levels of Ctnnb1
rA5: GAPDH siRNA, sense SEQ ID NO: 9 with ribo A5 3′-overhang, antisense SEQ ID NO: 10 with U2 (sense CCGAGCCACAUCGCUCAGAAAAAA; antisense UCUGAGCGAUGUGGCUCGGUU; RNA, backbone not given here)	79.0	−2.2	–	60	–
siR-34a-CP: Cell penetrating siRNA analog of miR-34a, sense SEQ ID NO: 24 with dA5, antisense SEQ ID NO: 25 (sense AAUCAGCUAAGUAUACUGCCAAAAAA; antisense UGGCAGUGUACUUAGCUGGUUGU; sense: sugars from the 5' end r21 d5, backbone not given here; antisense: RNA, backbone not given here)	–	–	–	–	Ctnnb1 expression (Ctnnb1 (β-Catenin); 50 nM, 24 h, alone without transfection reagent (FIG. 11)): up regulation of Ctnnb1; Ctnnb1 expression (Ctnnb1 (β-Catenin); [2]): up regulation of Ctnnb1
